Assay results reported in ChEMBL document CHEMBL1151331, “New cyclic peptides from the ascidian Lissoclinum patella” (J Nat Prod, 1998).

assay: Cytotoxicity against human multi drug-resistant CEM/VBL100 cells; assay type: functional, cell-based

For CC[C@]1(O)C[C@@H]2CN(CCc3c([nH]c4ccccc34)[C@@](C(=O)OC)(c3cc4c(cc3OC)N(C)[C@H]3[C@@](O)(C(=O)OC)[C@H](OC(C)=O)[C@]5(CC)C=CCN6CC[C@]43[C@@H]65)C2)C1 [VINBLASTINE], the IC50 was 90 nM.

assay: Cytotoxicity against human multi drug-resistant CEM/VBL100 cells in presence of vinblastine; assay type: functional, cell-based

First: CC[C@H](C)[C@@H]1NC(=O)c2csc(n2)[C@@H](C(C)C)NC(=O)[C@H]2N=C(O[C@@H]2C)[C@H]([C@@H](C)CC)NC(=O)c2csc(n2)[C@@H](C(C)C)NC(=O)[C@@H]2COC1=N2 [PATELLAMIDE A]
Second: CC[C@H](C)[C@@H]1NC(=O)c2csc(n2)[C@@H](C)NC(=O)[C@H]2N=C(O[C@@H]2C)[C@H](C(C)C)NC(=O)c2csc(n2)[C@@H](Cc2ccccc2)NC(=O)[C@H]2N=C1O[C@@H]2C [PATELLAMIDE C]
The IC50 of the first is 7.5-fold higher: 90 nM for the first, 12 nM for the second. The second is the more potent here.

First: CC[C@H](C)[C@@H]1NC(=O)c2csc(n2)[C@@H](C)NC(=O)[C@H]2N=C(O[C@@H]2C)[C@H](CC(C)C)NC(=O)c2csc(n2)[C@@H](Cc2ccccc2)NC(=O)[C@H]2N=C1O[C@@H]2C [PATELLAMIDE B]
Second: CC[C@H](C)[C@@H]1NC(=O)c2csc(n2)[C@@H](Cc2ccccc2)NC(=O)[C@H]2N=C(O[C@@H]2C)[C@H](CC(C)C)NC(=O)c2csc(n2)[C@@H](C)NC(=O)[C@H]([C@H](C)O)NC1=O [PATELLAMIDE G]
The IC50 of the first is 5-fold lower: 12 nM for the first, 60 nM for the second. The first is the more potent here.

Compared with CC(C)C[C@H]1NC(=O)[C@H]([C@H](C)O)NC(=O)[C@H]2CSSC[C@@H](NC(=O)c3csc1n3)C(=O)N[C@@H]([C@H](C)O)C(=O)N[C@H](Cc1ccccc1)c1nc(cs1)C(=O)N2 [ULITHIACYCLAMIDE E], CC(C)C[C@H]1NC(=O)[C@H]([C@H](C)O)NC(=O)[C@H]2CSSC[C@@H](NC(=O)c3csc1n3)C1=N[C@H](C(=O)N[C@H](Cc3ccccc3)c3nc(cs3)C(=O)N2)[C@@H](C)O1 [ULITHIACYCLAMIDE F] is 2.5-fold lower in IC50: 112 nM for the first, 44 nM for the second.

In the case of CC(C)C[C@H]1NC(=O)[C@H]2N=C(O[C@@H]2C)[C@H]2CSSC[C@@H](NC(=O)c3csc1n3)C(=O)N[C@@H]([C@H](C)O)C(=O)N[C@H](Cc1ccccc1)c1nc(cs1)C(=O)N2 [ULITHIACYCLAMIDE G], the IC50 is reported as 90 nM.
